The nature of series [1]: Renal (urinary) excretion over 10 h after CAP administration. To be noted: for Predominant form (free or conjugated) in post-administration urine: 10 h urine; for Predominant form (free or conjugated) in post-administration urine / Detection in 10 h post-administration urine: 2 g and 4 g CAP.
Description: (§1) All participants were asked to refrain from consuming food until 2 h after consumption of the study intervention at each visit to prevent delayed absorption due to food effects. […] Urine samples were collected at baseline and over the 10 h post-administration period at each visit to measure renal excretion. All post-administration urinary output was combined in a 2 L urine collection container stored at 4 °C during the study visit. The total amount of post CAP administration urine was recorded, and a 50 mL aliquot was frozen at −80 °C for analysis. At the second visit, participants consumed the dose they were not randomized to receive at the first visit and underwent all study procedures previously described.
(§2) Calibration curves were prepared in baseline urine and treated with sham enzyme.
(§3) Plasma and urine samples collected at the participant’s screening visit were analyzed in parallel with the samples collected from each study visit to determine the efficacy of the low phytochemical diet in reducing analyte levels from dietary sources. The analysis of the prepared plasma and urine samples was performed at the OHSU Bioanalytical Shared Resource/Pharmacokinetics Core Laboratory (Portland, OR). […] The injection volume was 5 µL. Gradient elution was performed using a mobile phase of solvent A (water containing 0.05% v/v acetic acid) and solvent B (acetonitrile with 0.05% v/v acetic acid). The flow rate was 0.8 mL/min.
The nature of series [2]: Plasma pharmacokinetics after single oral administration of CAP. The following applies: for Cmax / Tmax / AUC(0-t) / half-life: human; for Cmax / Tmax / AUC(0-t) / half-life / Fold difference in Cmax between the 2 g and 4 g doses: plasma; for Time of larger secondary peak of plasma concentration-time curve / Time of preliminary (initial) peak of plasma concentration-time curve: mean profile, both doses (2 g and 4 g).
Excerpt: (§4) This was a single-center, randomized, double blind, crossover study of two acute dosages (2 g and 4 g) of CAP. The participants were randomized using an arm equivalence design, by the OHSU Research Pharmacy, to receive each dose of CAP in a different order to prevent tolerance effects and ensure some data was available from each dose in the case of a dropout after the first dose. All study personnel were blinded to the participant’s randomization until all data analysis had been completed. All participants consumed both doses of CAP and attended two study visits a minimum of 14 days apart. They were placed on a low phytochemical diet for 48 h prior to and during each study visit in order to minimize interference from dietary TTs and CQAs and ensure that any such compounds identified in the plasma and urine were derived from C. asiatica. To ensure compliance, all participants completed a diet diary over the course of the 48 h. The participants fasted for a minimum of 10 h prior to each study visit, excluding water, to standardize gastrointestinal transit time and minimize delayed absorption due to the presence of food.
(§5) In the morning of each study visit, a baseline blood sample (20 mL) was collected via a peripheral intravenous catheter. […] Blood samples (10 mL) were collected via the peripheral catheter over a 10 h post-administration period at 0.25, 0.5, 0.75, 1, 1.5, 2, 2.5, 3, 4, 6, 8, and 10 h. Blood was transferred to a BD Vacutainer™ heparinized tube (Fisher Scientific) and centrifuged for 10 min at 10,000× g and 4 °C to isolate plasma. Plasma was frozen in 2mL aliquots and kept at −80 °C until analysis. […] All participants were asked to refrain from consuming food until 2 h after consumption of the study intervention at each visit to prevent delayed absorption due to food effects. Breakfast (at 2 h following CAP ingestion), lunch, dinner and snacks, all meeting the low phytochemical criteria, were provided by the OCTRI Bionutrition Unit. Urine samples were collected at baseline and over the 10 h post-administration period at each visit to measure renal excretion. All post-administration urinary output was combined in a 2 L urine collection container stored at 4 °C during the study visit. The total amount of post CAP administration urine was recorded, and a 50 mL aliquot was frozen at −80 °C for analysis. At the second visit, participants consumed the dose they were not randomized to receive at the first visit and underwent all study procedures previously described.
(§6) Sample preparation was performed using a protein precipitation method adapted from Cheng et al. [55] Duplicate plasma samples (50 µL) were combined with an ascorbic acid solution (1%; 10 µL) and incubated for 20 min at 37 °C using A. aerogenes sulfatase (2.5 µL; 0.025–0.05 units) and E. coli glucuronidase (2.5 µL; 12.5–125 units) dissolved in 50% aqueous glycerol to release the analytes from their sulfate and β-D-glucuronic acid esters. Proteins were precipitated by adding a crash solution (200 µL) consisting of 3:1 acetonitrile:methanol containing internal standards (20 µg/mL d3-isoferulic acid, d3-dihydroisoferulic acid, and chrysin or 50 µg/mL ^13C3-ferulic acid and ursolic acid), holding for 30 min at 4 °C and then centrifuged for 5 min at 10,000× g. The supernatant was filtered through a 0.22 µm Ultrafree MC-GV spin filter (Millipore Sigma) at 10,000× g for 5 min at 4 °C and then transferred to vials for analysis. For TT analysis, the concentration of organic solvent (the sample filtrate) to water in each sample was adjusted to a 60:40 ratio to optimize the peak shape, and for CQA analysis, the concentration of organic solvent to 1% aqueous formic acid in each sample was adjusted to a 90:10 ratio to optimize the peak shape.

Series [3] can be described thus: Analyte levels in screening and baseline plasma and urine (low phytochemical diet check). To be noted: for Baseline Total, urine concentration / Baseline Unconjugated, urine concentration: baseline on study visits after 48 h low phytochemical diet, before CAP; for Baseline Total, urine concentration / Baseline Unconjugated, urine concentration / Screening Unconjugated, urine concentration / Screening Total, urine concentration: mean ± SEM, n = 4; for Screening Unconjugated, urine concentration / Screening Total, urine concentration: screening visit; for Screening Unconjugated, urine concentration / Screening Total, urine concentration / Plasma concentration at screening visit: uncontrolled diet; for Screening Unconjugated, urine concentration: sham enzyme; for Screening Total, urine concentration: with enzyme hydrolysis; for Plasma concentration at screening visit: before any CAP.
Excerpt: as §4, §2
(§7) Plasma and urine samples collected at the participant’s screening visit were analyzed in parallel with the samples collected from each study visit to determine the efficacy of the low phytochemical diet in reducing analyte levels from dietary sources. The analysis of the prepared plasma and urine samples was performed at the OHSU Bioanalytical Shared Resource/Pharmacokinetics Core Laboratory (Portland, OR). For detection of TT glycosides and aglycones, an analytical method adapted from Nair et al. [56] was used. […] The injection volume was 20 µL. Gradient elution was performed using a mobile phase of solvent A (water containing 10 mM ammonium acetate and 0.02% ammonium hydroxide; pH 8.5) and solvent B (methanol). The flow rate was 0.42 mL/min. […] The injection volume was 5 µL. Gradient elution was performed using a mobile phase of solvent A (water containing 0.05% v/v acetic acid) and solvent B (acetonitrile with 0.05% v/v acetic acid). The flow rate was 0.8 mL/min.

On the set-up of series [4]: method as in PMID 19167274. The following applies: dogs given encapsulated aqueous extracts of C. asiatica standardized to asiaticoside; cited from earlier work.
Details of series [5]: method as in PMID 2329813, PMID 8020529. To be noted: past human studies of TTFCA or asiatic acid alone, capsule form; cited from earlier work.
For series [6] the following is noted: human, in vivo.
Excerpt: as §4, §5, §6
For series [7] the following is noted: in vivo.
Description: as §1, §2, §3
The conditions of series [8]: in vivo. This is another data set of the same source.
Excerpt: as §4, §2, §7
Details of series [9]: method as in PMID 33767223. To be noted: two separate doses (250 mg and 500 mg), formulation with solubilizing agent; cited from earlier work.
Series [10] in a line: clinical. To be noted: human, in vivo, po.
Excerpt: as §4, §5, §6

The values below come from paper PMC8868383, “Pharmacokinetics and Pharmacodynamics of Key Components of a Standardized Centella asiatica Product in Cognitively Impaired Older Adults: A Phase 1, Double-Blind, Randomized Clinical Trial” (Antioxidants, 2022).

“And” between values parts separate entries of the source, which are not always exact repeats. Equal entries are not always repeated. Where two headings read alike, the source gives them in different places.

For `COc1cc(CCC(=O)O)ccc1O` [DHFA, dihydroferulic acid], in [1], the “Predominant form (free or conjugated) in post-administration urine” value (“Predominant form (free or conjugated)” below) is on record as “predominantly conjugated form”. Moreover, in series [2] (oral), the Cmax was 11 to 20 ng/mL and the Tmax stood at 4 h. For the same compound, in series [2] (po, 2 g), the AUC(0-t) came to 42 ± 18 ng·h/mL, the highest concentration (Cmax) came out at 11 ± 5 ng/mL, the Tmax amounted to 3.4 ± 1 h and the half-life is 4.5 ± 1.6 h. In [2] (po, 4 g), the AUC(0-t) turned out to be 77 ± 25 ng·h/mL, the Cmax stood at 20 ± 6 ng/mL, the Tmax worked out at 3.5 ± 0.5 h and the half-life is 2.5 ± 0.3 h. In addition, the “Fold difference in Cmax between the 2 g and 4 g doses” value (shortened to “Fold difference”) in [2] is listed as “two-fold”. Further, in [3], the “Baseline Total, urine concentration” value came out at 273 ± 131 ng/mL; the “Baseline Unconjugated, urine concentration” value came to 8 ± 6 ng/mL; the “Screening Unconjugated, urine concentration” value (“Screening Unconjugated” for short) worked out at 179 ± 74 ng/mL; the “Screening Total, urine concentration” value came to 939 ± 507 ng/mL. The “Plasma concentration at screening visit” value in series [3] was 6.6 ± 3.2 ng/mL.
On to `O=C(O)CCc1ccc(O)c(O)c1` [DHCA, dihydrocaffeic acid], for which, in series [1], the “Predominant form (free or conjugated)” value was “predominantly conjugated form”. Besides, in series [2] (oral), the peak concentration (Cmax) was 1 to 2 ng/mL and the time to peak (Tmax) stood at 4 h. In addition, in series [2] (po, 2 g), the AUC(0-t) was 3 ± 0.4 ng·h/mL, the concentration peaked (Cmax) at 1 ± 0.4 ng/mL, the Tmax stood at 3.25 ± 0.5 h and the half-life is 4.8 ± 1.3 h. In series [2] (po, 4 g), the AUC(0-t) turned out to be 6 ± 1 ng·h/mL, the Cmax is 2 ± 0.2 ng/mL, the time of peak concentration (Tmax) stood at 3.5 ± 0.5 h and the half-life is 1.1 ± 0.4 h. Besides, in series [2], the “Time of larger secondary peak of plasma concentration-time curve” value is on record as 4 h; the “Time of preliminary (initial) peak of plasma concentration-time curve” value (shortened to “Time of preliminary”) worked out at 2 h; the “Fold difference” value is reported as “two-fold”. Besides, in [3], the “Baseline Total, urine concentration” value is recorded as 9 ± 3 ng/mL; the “Baseline Unconjugated, urine concentration” value was found to be 0.9 ± 2 ng/mL; the “Screening Unconjugated” value is 46 ± 36 ng/mL; the “Screening Total, urine concentration” value stood at 117 ± 64 ng/mL. In series [3], the “Plasma concentration at screening visit” value was 0.3 ± 0.2 ng/mL.
Consider `O=C(O)CCc1cccc(O)c1` [HPP, 3-(3-hydroxyphenyl)propionic acid], for which the “Predominant form (free or conjugated)” value in series [1] is “predominantly conjugated form”. In series [2] (oral), the Cmax lay in the range of 32 to 42 ng/mL and the Tmax was 6 h. Further, in [2] (po, 2 g), the area under the curve AUC(0-t) came to 100 ± 46 ng·h/mL, the Cmax stood at 32 ± 18 ng/mL, the Tmax came out at 6 ± 1.4 h and the half-life is 2.3 ± 0.3 h. Further, in series [2] (po, 4 g), the AUC(0-t) stood at 189 ± 77 ng·h/mL, the Cmax turned out to be 42 ± 18 ng/mL, the Tmax was determined as 5.5 ± 1.7 h and the half-life was 1.8 ± 0.7 h. Further, in series [3], the “Baseline Total, urine concentration” value worked out at 2 ± 2 ng/mL; the “Screening Unconjugated” value was 23 ± 14 ng/mL; the “Screening Total, urine concentration” value turned out to be 91 ± 48 ng/mL; the “Plasma concentration at screening visit” value turned out to be 49.6 ± 30.4 ng/mL.
For the compound `C[C@H]1[C@H](C)CC[C@]2(C(=O)O)CC[C@]3(C)C(=CC[C@@H]4[C@@]5(C)C[C@@H](O)[C@H](O)[C@@](C)(CO)[C@@H]5CC[C@]43C)[C@H]12` [AA, asiatic acid], the “Time of plasma peak post consumption” value in series [4] is recorded as 2.7 h. Besides, the Tmax post-ingestion in series [5] is 4.0 to 4.6 h. In addition, in [1], the “Detection in 10 h post-administration urine” value was “very low concentrations” and the “Predominant form (free or conjugated)” value was “predominantly in the conjugated form”. Also, in series [2] (oral), the Cmax lay in the range of 133 to 259 ng/mL and the Tmax was determined as 2 h. Also, in series [2] (oral, 2 g), the Cmax worked out at 99 ng/mL and the Tmax worked out at 3 h. In series [2] (oral, 4 g), the Cmax was 206 ng/mL and the Tmax was 2.5 h. Also, in series [2] (po, 2 g), the area under the curve AUC(0-t) amounted to 364 ± 114 ng·h/mL, the Cmax was 124 ± 29 ng/mL, the Tmax was found to be 2 ± 0.6 h and the half-life is 3.8 ± 1 h. In series [2] (po, 4 g), the AUC(0-t) amounted to 935 ± 178 ng·h/mL, the highest concentration (Cmax) came to 259 ± 24 ng/mL, the Tmax amounted to 2 ± 0.6 h and the half-life was 2.2 ± 0.5 h. Moreover, in series [2], the “Time of larger secondary peak of plasma concentration-time curve” value was 2.5 h and 2.5 to 3 h; the “Time of preliminary” value worked out at 0.5 h. Also, in series [3], the “Screening Total, urine concentration” value is listed as 0.5 ± 5 ng/mL.
As for `C[C@H]1[C@H](C)CC[C@]2(C(=O)O)CC[C@]3(C)C(=CC[C@@H]4[C@@]5(C)C[C@@H](O)[C@H](O)[C@@](C)(CO)[C@@H]5[C@H](O)C[C@]43C)[C@H]12` [MA, madecassic acid], the Cmax in series [2] (oral) was 36 to 68 ng/mL; in [2] (oral, 2 g), 32 ng/mL; in series [2] (oral, 4 g), 47 ng/mL; in series [2] (po, 2 g) it was 38 ± 3 ng/mL; in series [2] (po, 4 g), 63 ± 10 ng/mL. The Tmax is 2 h in [2] (oral); 0.75 h in series [2] (oral, 2 g); 3 h in series [2] (oral, 4 g); 2 ± 0.5 h in series [2] (po, 2 g); 2 ± 0.5 h in [2] (po, 4 g). Moreover, the AUC(0-t) in [2] (po, 2 g) was determined as 101 ± 16 ng·h/mL; in series [2] (po, 4 g) it was 187 ± 48 ng·h/mL. Also, the half-life in [2] (po, 2 g) is 1.7 ± 0.5 h; in series [2] (po, 4 g), 1.7 ± 0.9 h. For the same compound, the “Time of preliminary” value in [2] was determined as 0.75 h.
On to `COc1cc(/C=C/C(=O)O)ccc1O` [FA, ferulic acid], for which, in series [6], the “Cmax, range over the 2 g and 4 g doses as stated in text” value lay within 1 to 1.4 ng/mL; the “Tmax as stated in text” value was found to be 6 h. Also, the “Predominant form (free or conjugated)” value in series [7] is “predominantly conjugated form”. Moreover, in series [8], the “Plasma concentration at screening visit” value turned out to be 1.3 ± 0.2 ng/mL; the “Screening Total, urine concentration” value is recorded as 372 ± 78 ng/mL; the “Screening Unconjugated” value was found to be 7 ± 3 ng/mL.
With `COc1ccc(/C=C/C(=O)O)cc1O` [IFA, isoferulic acid], the “Predominant form (free or conjugated)” value in series [1] was “predominantly conjugated form”. Further, in series [2] (oral), the Cmax fell in the range of 0.9 to 2 ng/mL and the Tmax came to 0.75 h. Further, in [2] (po, 2 g), the AUC(0-t) came out at 5 ± 2 ng·h/mL, the Cmax came out at 0.9 ± 0.3 ng/mL, the Tmax came out at 1.3 ± 0.6 h and the half-life was 8.8 ± 5.7 h. For the same compound, in [2] (po, 4 g), the AUC(0-t) is 8 ± 0.4 ng·h/mL, the concentration peaked (Cmax) at 2 ± 0.1 ng/mL, the Tmax amounted to 1 ± 0.4 h and the half-life was 2.9 ± 0.6 h. For the same compound, the “Fold difference” value in series [2] is “two-fold”. Besides, in [3], the “Baseline Total, urine concentration” value came to 5 ± 2 ng/mL; the “Screening Unconjugated” value was determined as 4 ± 3 ng/mL; the “Screening Total, urine concentration” value was 472 ± 246 ng/mL; the “Plasma concentration at screening visit” value is reported as 2.3 ± 1.0 ng/mL.
Consider `C[C@H]1[C@H](C)CC[C@]2(C(=O)O[C@@H]3O[C@H](CO[C@@H]4O[C@H](CO)[C@@H](O[C@@H]5O[C@@H](C)[C@H](O)[C@@H](O)[C@H]5O)[C@H](O)[C@H]4O)[C@@H](O)[C@H](O)[C@H]3O)CC[C@]3(C)C(=CC[C@@H]4[C@@]5(C)C[C@@H](O)[C@H](O)[C@@](C)(CO)[C@@H]5[C@H](O)C[C@]43C)[C@H]12` [MS, madecassoside], for which the “Plasma concentration after single administration of modified ECa233” value in series [9] was 10 to 13 ng/mL. Further, in [1], the “Detection in 10 h post-administration urine” value is listed as “small amounts” and the “Predominant form (free or conjugated)” value was “predominantly free form”. In addition, in series [1] (after 2 g or 4 g CAP), the “Amount in the 10 h urine” value lay within 1 to 8 µg. The Plasma levels entry in series [2] (all time points, 2 g and 4 g CAP) is recorded as “below the lower limit of quantitation (LLOQ)”.
As for `O=C(O)/C=C/c1ccc(O)c(O)c1` [CA, caffeic acid], the Cmax in [10] turned out to be 0.3 ± 0.2 ng/mL. Moreover, in series [2] (oral), the Cmax was in the range of 0.3 to 0.5 ng/mL and the Tmax worked out at 6 h. In series [2] (po, 2 g), this compound had an AUC(0-t) of 1 ± 1 ng·h/mL and a half-life of 2.6 h. In [2] (po, 4 g), the AUC(0-t) stood at 3 ± 0.3 ng·h/mL, the Cmax was 1 ± 0.1 ng/mL, the Tmax was found to be 4 ± 1 h and the half-life is 3.5 ± 1.2 h. In addition, in [3], the “Screening Unconjugated” value came out at 184 ± 144 ng/mL; the “Screening Total, urine concentration” value was determined as 260 ± 140 ng/mL; the “Plasma concentration at screening visit” value is 0.8 ± 0.6 ng/mL.
